This is an account of results in patent publication US9439884B2, “Methods for the treatment of immune disorders” (Beth Israel Deaconess Medical Center, Inc., priority 2011, dated 2016).

For test [1], the target named is T1, Pin1 WW domain (Homo sapiens, UniProt Q13526).
T1 construct: monitor the changes in the ^15N-WW domain induced by titration with phosphopeptide ligands
Briefly: 2D NMR (15N-1H HSQC) titration of 15N-WW domain with IRAK1 phosphopeptides. Format: binding. Conditions: chemical shift change of 15N-WW domain as a function of peptide concentration; read-out: dissociation constants (KD). From the text: To measure the Pin1 interaction with each of the implicated pSer-Pro motifs in IRAK1, we employed two-dimensional (2D) NMR spectroscopy to monitor the changes in the ^15N-WW domain induced by titration with phosphopeptide ligands. In a 2d ^15N-^1H HSQC spectrum of a protein (FIG. 3a), each backbone NH group is represented by a peak, whose position reflects the chemical environment of that NH bond. Ligand binding to the protein is detected by changes in peak positions (fast exchange) or by the appearance of new peaks (slow exchange) as ligand is added. WW binding at each distinct IRAK1 site was measured using phosphopeptides containing residues 126-136 (pSer131-P132), 140-150 ([…]), and 157-180 (pSer173-P174) of IRAK1.

Test [2] relates to lupus prone mouse models. Conditions: some lupus prone mouse models; cited from earlier work.
Test [3] concerns MCF-10A. Put plainly: Cell growth, normal breast cells MCF-10A. The class given is cell-based.
Test [4] has as its target T2, Pin1 (Homo sapiens, UniProt Q13526). Put plainly: Pin1 PPIase (catalytic activity) assay in vitro. Format: biochemical. From the text: (§1) In this regard, recently, we identified specific and potent Pin1 catalytic peptidic inhibitors and used them to establish a robust and sensitive FP-based HTS to screen approved drugs and NIH Chemical and Genomics Center, which led us to successfully identify all trans retinoic acid (ATRA) and four other Pin1 inhibitors active in cells for further optimization including Cpd4 (FIG. 27A).
(§2) We developed a fluorescence polarization (FP)-based HTS using fluorescence labeled Pin1 peptidic inhibitor, pTide to identify Pin1 inhibitors. Our screening of selected compounds at the Harvard ICCB-L libraries identified the strongest hit to be cis-RA according to the Z-score (FIG. 31A). To confirm that RAs target Pin1, we examined cis-RA and trans-RA in vitro and in cells. […] Cellular Pin1 activity was also reflected by cyclin D1 levels (FIG. 31D), a known Pin1 biomarker.

Test [5] relates to SKBR3. Put plainly: Cell growth inhibition, SKBR3. Conditions: breast cancer cell line SKBR3. The class given is cell-based.
Test [6] deals with T3, Pin1 (Mus musculus, UniProt Q9QUR7).
T3 construct: endogenous in cells; host or cells: bone-marrow-derived eosinophils
T3 sequence (Q9QUR7 whole entry): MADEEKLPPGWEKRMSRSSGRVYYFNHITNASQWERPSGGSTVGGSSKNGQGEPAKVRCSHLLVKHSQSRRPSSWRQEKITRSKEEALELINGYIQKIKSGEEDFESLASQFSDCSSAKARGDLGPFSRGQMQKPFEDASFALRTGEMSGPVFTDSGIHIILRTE
Briefly: Pin1 western and PPIase assay in IL-33-stimulated BM-derived eosinophils. The class given is cell-based. Conditions: 100 ng/ml IL-33.

Test [7] concerns the target T2, Pin1. Briefly: Pin1 protein/mRNA levels and turnover in cells. Format: cell-based.
Source text: as §2

Test [8] relates to Pin1 KO MEFs. Put plainly: Anti-proliferative effect in Pin1 KO MEFs with or without Pin1 re-expression. The class given is cell-based, mouse.
Test [9] concerns T47D. Briefly: Cell growth inhibition, T47D. Format: cell-based. Conditions: breast cancer cell line T47D.
Test [10] addresses T2, Pin1. Briefly: Fluorescence polarization (FP)-based HTS / displacement of labeled Pin1 peptidic inhibitor pTide. The class given is binding.
Source text: as §1, §2
(Fluorescence polarisation rises when a labelled molecule tumbles more slowly, as on binding a larger partner.)

Test [11] concerns pDCs. Briefly: Cytokine production of pDCs upon TLR9 activation by CpG. Format: cell-based.
The subject of test [12] is BM-derived eosinophils. Put plainly: IL-6 ELISA in IL-33-stimulated BM-derived eosinophils. The class given is cell-based. Conditions: 100 ng/ml IL-33. Background: An ELISA detects its analyte on a solid surface through an enzyme-linked reagent.
For test [13], the system named is cancer cells. Put plainly: Pin1-dependent cancer cell growth. Format: cell-based.
Source text: as §1

For test [14], the system named is NZBWF1 mice. Put plainly: Proteinuria in lupus-prone NZBWF1 mice (Bio-Rad assay). The class given is in vivo. Conditions: female NZBWF1 mice, controlled release pellets, 3.5 months, vs placebo. As to the method:
Female lupus-prone NZBWF1 mice were treated with placebo or ATRA for 3.5 months and proteinuria was evaluated by Bio-Rad assay.
Our objective here was to determine if the Pin1 inhibitor we have discovered, ATRA, offer a treatment benefit in preclinical models of SLE. To this end we have been treating NZBWF1 female mice for 3.5 months with controlled release ATRA pellets, which have been well established pharmacologically and which offer the advantage ease of delivery, reduced stress to subjects and controlled drug release. Each cohort has been pre-bleed and urine collected before the start of drug treatment. Subsequently, we have collected serum and urine samples monthly for evaluation of disease markers such as autoantibodies and proteinuria.

In test [15] the target is T2, Pin1. Put plainly: Co-crystal structure of Pin1 and ATRA. The class given is binding.
Test [16] has as its target T4, TLR9 (Homo sapiens, UniProt Q9NR96).
T4 sequence (Q9NR96 26-1032): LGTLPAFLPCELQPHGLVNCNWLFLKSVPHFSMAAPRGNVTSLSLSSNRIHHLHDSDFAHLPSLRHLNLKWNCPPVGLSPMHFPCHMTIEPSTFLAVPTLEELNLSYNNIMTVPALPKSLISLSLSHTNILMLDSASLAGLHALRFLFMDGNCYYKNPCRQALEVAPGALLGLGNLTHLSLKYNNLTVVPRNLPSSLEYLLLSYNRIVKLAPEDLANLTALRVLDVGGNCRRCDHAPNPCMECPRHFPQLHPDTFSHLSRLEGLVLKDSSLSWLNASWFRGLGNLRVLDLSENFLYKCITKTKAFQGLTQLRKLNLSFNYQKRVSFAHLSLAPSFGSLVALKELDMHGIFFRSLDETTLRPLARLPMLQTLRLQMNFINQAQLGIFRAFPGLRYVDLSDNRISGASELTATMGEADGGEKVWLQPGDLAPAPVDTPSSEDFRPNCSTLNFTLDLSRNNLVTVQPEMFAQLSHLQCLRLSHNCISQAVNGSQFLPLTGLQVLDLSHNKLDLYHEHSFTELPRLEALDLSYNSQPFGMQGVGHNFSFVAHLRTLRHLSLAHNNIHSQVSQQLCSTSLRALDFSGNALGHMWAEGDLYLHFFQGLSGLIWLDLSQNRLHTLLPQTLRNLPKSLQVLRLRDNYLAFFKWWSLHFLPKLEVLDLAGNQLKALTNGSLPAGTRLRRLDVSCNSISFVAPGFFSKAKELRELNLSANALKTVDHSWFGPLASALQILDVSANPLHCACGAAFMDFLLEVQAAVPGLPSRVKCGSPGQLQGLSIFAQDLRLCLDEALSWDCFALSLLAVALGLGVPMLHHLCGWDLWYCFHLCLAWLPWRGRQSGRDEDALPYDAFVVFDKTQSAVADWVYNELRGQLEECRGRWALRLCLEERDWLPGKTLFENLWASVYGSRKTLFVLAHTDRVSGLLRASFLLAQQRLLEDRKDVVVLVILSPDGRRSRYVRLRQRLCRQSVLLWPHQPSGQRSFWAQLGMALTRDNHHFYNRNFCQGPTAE
Conditions: cited from earlier work.

Test [17] has as its system PP2A. Briefly: Pin1 dephosphorylation in human PBMCs after TLR9 activation by CpG. Format: cell-based. Conditions: human PBMCs pretreated with 5 nM. From the text:
We have shown that in SLE T cells the message, protein and activity of PP2Ac is increased and is involved in their abnormal function. First, PP2Ac dephosphorylates pCREB and accounts for the decreased IL-2 production. Second, PP2Ac dephosphorylates the transcription factor Elf1 and decreases its ability to bind to the promoters of CD3zeta and FcRgamma genes causing suppression of the first and derepression of the second with significant repercussions in the composition of the CD3 complex in SLE T cells. Third, PP2Ac dephosphorylates (and activates) SP1, which binds to the promoter of IL-17A and promotes its expression. […] Moreover, Pin1 also was dephosphorylated in T cells isolated from CD2:PP2A transgenic mice that overexpresses PP2Ac in T cells developed in Dr. Tsokos laboratory, but not wild-type littermates (FIG. 25E). Therefore, it is reasonable to predict that increased PP2Ac activity may contribute to the dephosphorylation and activation of Pin1 in SLE. Alternatively, because calcineurin (CaN) can also dephosphorylate Pin1 in vitro (FIG. 25) and CaN inhibitors may have a place in the treatment of SLE, we will consider it as a viable alternative to PP2Ac.

For test [18], the target named is T2, Pin1. Briefly: 15N-1H Nzz exchange spectroscopy of Pin1-catalyzed cis-trans isomerization. Format: biochemical. Conditions: pS173P peptide bond; peptide 1 mM, Pin1 17 μM. From the text: Because uncatalyzed cis-trans isomerization is a generally slow process (time constant minutes), the equilibrium between cis and trans isomers yields two distinct peaks for residues (such as A175) whose chemical environment differs in the two isomer states. […] The dependence of peak intensities on Nzz mixing time yields the cis-trans exchange rate. […] Based on peak intensities in the absence of Pin1, the pS173P trans:cis ratio is 85:15.

Entries after “also recorded” stand apart in the source; their conditions may differ. Where two headings read alike, the source gives them in different places. *1 amine or outer side, *2 acyl side, *3 side chain or, on linkers, in order; H or OH if unused. Where a SMILES comes first, the peptide text is derived from it. Where no end group is shown, it is not given here. [ ]: non-standard residue; d: D form. 15N‑Ala = Ala with single 15N label, C[C@H]([15NH][*:1])C(=O)[*:2]; pS = N[C@@H](COP(=O)(O)O)C(=O)O

T2 sequence (Q13526 whole entry): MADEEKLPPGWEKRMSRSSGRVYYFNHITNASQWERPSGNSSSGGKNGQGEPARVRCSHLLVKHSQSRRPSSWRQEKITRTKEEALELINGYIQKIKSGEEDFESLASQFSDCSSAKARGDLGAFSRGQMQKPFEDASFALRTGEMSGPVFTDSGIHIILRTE
T1 sequence (Q13526 5-39 limits assumed): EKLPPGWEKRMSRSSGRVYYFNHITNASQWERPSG

Broadly, the Kd is the concentration at which binding is half-saturated. `CC(C)C[C@H](NC(=O)[C@H](CCCCN)NC(=O)[C@H](CCCNC(=N)N)NC(=O)[C@@H]1CCCN1C(=O)[C@H](COP(=O)(O)O)NC(=O)[C@H](Cc1c[nH]c2ccccc12)NC(=O)[C@H](C)NC(=O)[C@H](CCC(=O)O)NC(=O)[C@H](C)NC(=O)[C@@H](N)CCC(=O)O)C(=O)N1CCC[C@H]1C(=O)O` [126-136 (pSer131-P132)] (H-EAEAW[pS]PRKLP-OH): in test [1], the Kd came out at 220 ± 15 µM.
Turning to `CC1=C(/C=C/C(C)=C/C=C/C(C)=C/C(=O)O)C(C)(C)CCC1` [ATRA, all trans retinoic acid], the SLE-related phenotypes result in test [2] is “suppress SLE-related phenotypes”. In addition, in test [3], the “effect on normal breast cells” value is “without any effects”. For the same compound, the “inhibition of Pin1 catalytic (PPIase) activity” value (from here on “inhibition of Pin1 catalytic”) in test [4] is on record as “inhibited its catalytic activity”. For the same compound, in test [4] (listed as trans-RA), the “inhibition of Pin1 catalytic” value is reported as “Dose-dependant Pin1 inhibition; also recorded: inhibiting Pin1 PPIase assays”. In test [5], the “inhibition of cell growth” value is “inhibiting cell growth”. In addition, in [6], the “Pin1 activation (PPIase assay)” value is recorded as “inhibited Pin1 activation” and the “Pin1 degradation (Pin1 western)” value is recorded as “induced Pin1 degradation”. In test [7] (breast cancer cell lines SKBR3 and T47D), the Pin1 levels entry is “reducing Pin1 levels”. Besides, in test [7] (cancer cells), the “degradation of Pin1 and its substrate D1” value is reported as “induced the degradation”. For the same compound, in test [8] (Pin1 KO MEFs), the “sensitivity to anti-proliferative effects” value is on record as “much more resistant”. The drug sensitivity result in test [8] (Pin1 KO MEFs with stable re-expression of Pin1 (not its inactive mutant)) is listed as “fully restored”. In addition, the “inhibition of cell growth” value in test [9] is given as “inhibiting cell growth”. Besides, in test [10] (compared with cis-RA), the “Pin1 inhibition in FP assays” value is “more potent Pin1 inhibition than cis-RA”. Further, the “competition with Pin1 catalytic peptidic inhibitors for binding to the Pin1 active site” value in test [10] (preliminary results) is reported as “effectively competed”. Also, in test [11], the “production of IL6” value is recorded as “suppressed”, the “production of IL12” value is recorded as “suppressed” and the “production of TNF-α” value is listed as “suppressed”. Moreover, the IL-6 secretion result in [12] is reported as “inhibited”. Further, the “inhibition of Pin1-dependent cancer cell growth” value in test [13] is “inhibited Pin1-dependent cancer cell growth”. Besides, the proteinuria result in test [14] is reported as “significantly reduced”. For the same compound, the “binding site in co-crystal structure” value in [15] is given as “bound to Pin1 active site”.
For the compound `CC1=C(/C=C/C(C)=C/C=C/C(C)=C\C(=O)O)C(C)(C)CCC1` [cis-RA, 13-cis retinoic acid], the “inhibition of Pin1 catalytic” value in [4] was “Dose-dependant Pin1 inhibition”. In addition, the “hit ranking according to the Z-score” value in test [10] (screening of Harvard ICCB-L libraries) is given as “strongest hit”.
Consider `CCN(CCO)CCCC(C)Nc1ccnc2cc(Cl)ccc12` (stereo not drawn) [hydroxychloroquine], for which the “stimulation of TLR9” value in [16] was “inhibits stimulation of TLR9”.
Consider `C=C1[C@@H](O)[C@@H]2O[C@]3(CC[C@H](/C=C/[C@@H](C)[C@@H]4CC(C)=C[C@@]5(O[C@H](C[C@@](C)(O)C(=O)O)CC[C@H]5O)O4)O3)CC[C@H]2O[C@@H]1[C@@H](O)C[C@H](C)[C@H]1O[C@@]2(CCCCO2)CC[C@H]1C` [okadaic acid], for which the “Pin1 dephosphorylation after CpG” value in [17] is on record as “reversed”.
For the compound “^15N-Ala175-UD157-180: IRAK1 UD157-180 phosphopeptide with a single 15N label at Ala175 (ELGLVPSPASLWPPPP[pS]P[15N‑Ala]PSSTK; not fully specified; also: other phosphorylation sites not given here; UniProt P51617 157-180, looked up, fragment)”, the “Pin1-catalyzed isomerization rate kex” value in [18] worked out at 27 s⁻¹.
